The subject of assay [1] is MES SA (human uterine sarcoma). To be noted: read-out: IC50 MES SA.
Assay [2] has as its system MES SA DX (human uterine sarcoma cell line with marked multidrug resistance). To be noted: read-out: IC50 MES SA DX.
Assay [3] has as its system HEK 293T (human embryonic kidney cancer cell line). To be noted: read-out: IC50 HEK 293T.
Assay [4] shares this test system. Put plainly: cells. To be noted: 72 h, read-out: IC50 HEK 293T.
Assay [5] concerns MES SA (human uterine sarcoma). Put plainly: cells. To be noted: 72 h, read-out: IC50 MES SA.
Assay [6] has as its system MES SA DX (human uterine sarcoma cell line with marked multidrug resistance). The assay is described as follows: cells. To be noted: 72 h, read-out: IC50 MES SA DX.

pIC50: −log10 of the molar value. Read-outs that look alike come from different tables or passages of the source. Square brackets hold non-standard residues; d marks the D form. Peptide text beside a SMILES is read from it. * marks the point of attachment. Dolaproine = CO[C@@H]([C@@H]1CCCN1)[C@@H](C)C(=O)O; Dil = CC[C@H](C)[C@H](NC)[C@@H](CC(=O)O)OC; X1 = C[C@@H](N*)[C@@H](O)c1ccccc1; NMeV = CN[C@H](C(=O)O)C(C)C

The values below come from patent publication US20210230178A1, “TRIOXACARCIN ANALOGS AND DIMERS AS POTENT ANTICANCER AGENTS” (William Marsh Rice University, priority 2017, published 2021).

With `CC[C@H](C)[C@@H]([C@@H](CC(=O)N1CCC[C@H]1[C@H](OC)[C@@H](C)C(=O)N[C@H](C)[C@@H](O)c1ccccc1)OC)N(C)C(=O)[C@@H](NC(=O)[C@@H](NC)C(C)C)C(C)C` [MMAE, monomethyl auristatin E, reference compound] (H-[NMeV]V[Dil][Dolaproine]-X1), the pIC50 (usually the IC50 on a negative log10 scale, so that one unit is a factor of ten) in assay [1] was 10.22; in assay [2], below 7.15; in assay [3] it was 10.10.

For `COc1c2c(c(O)c3c4c(c(C)cc13)[C@@H]1O[C@@]3(C(OC)OC)O[C@@H]1[C@@](O[C@H]1C[C@@H](O)[C@@](O)(C(C)=O)[C@H](C)O1)(O4)[C@@]31CO1)C(=O)[C@@H](O)C[C@@H]2O[C@H]1C[C@@](C)(O)[C@H](O)[C@H](C)O1` [Trioxacarcin D, reference compound], the values for the negative-log IC50 (pIC50) in assay [1], in assay [2] and in assay [3] were 7.96, below 6.00 and 8.10, respectively.

As for “(4R,5S,6R,10S)-8-{[(1S,2R)-2-(1,3-Dioxan-2-yl)-12-hydroxy-7-methoxy-5-methyl-11-oxo-3a,4,8,9,10,11-hexahydro-13aH-spiro[2,4-epoxyfuro[3,2-b]naphtho[2,3-h]chromene-1,2′-oxiran]-13a-yl]oxy}-4,6-dimethyl-2-oxo-1,3,7-trioxaspiro[4.5]dec-10-ylacetate [Trx22]”, the values for the pIC50 in assay [1], in assay [2] and in assay [3] were 8.24, 7.24 and 8.38, respectively.

With `COc1c2c(c(O)c3c4c(c(C)cc13)C1OC3(C5OCCCO5)OC1[C@@](OCC=CCO[C@@]15Oc6c(c(C)cc7c(OC)c8c(c(O)c67)C(=O)CCC8)C6OC(C7OCCCO7)(OC61)[C@]51CO1)(O4)[C@@]31CO1)C(=O)CCC2` (stereo partly drawn) [Trx24, (1S,2S,3aS,4R,13aR,1′″S,2′″S,3a′″S,4′″R,13a′″R)-13a,13a′-[(2Z)-but-2-ene-1,4-diylbis(oxy)]bis[2-(1,3-dioxan-2-yl)-12-hydroxy-7-methoxy-5-methyl-3a,4,8,9,10,13a-hexahydro-11H-spiro[2,4-epoxyfuro[3,2-b]naphtho[2,3-h]chromene-1,2′-oxiran]-11-one]], the pIC50 was below 6.00 in assay [1], below 6.00 in assay [2] and 6.94 in assay [4].

With `COc1c2c(c(O)c3c4c(c(C)cc13)[C@@H]1O[C@@]3(C(OC)OC)O[C@@H]1[C@@](O[C@H]1C[C@@H](O)[C@@](O)(C(C)=O)[C@H](C)O1)(O4)[C@@]31CO1)C(=O)[C@@H](O)C[C@@H]2O[C@H]1C[C@@](C)(O)[C@H](OC(C)=O)[C@H](C)O1` [Trioxacarcin A], the pIC50 is 9.13 in assay [1], 6.69 in assay [2] and 9.15 in assay [3].

As to `CO[C@@]12Oc3c4c(cc(C)c3[C@H]3O[C@](C5OCCCO5)(O[C@@H]31)[C@]21CO1)C(=O)c1cccc(O)c1C4=O` [Trx31, (1S,2S,3aS,4R,13aR)-2-(1,3-Dioxan-2-yl)-11-hydroxy-13a-methoxy-5-methyl-3a,13a-dihydro-4H-spiro[2,4-epoxyfuro[3,2-b]naphtho[2,3-h]chromene-1,2′-oxirane]-7,12-dione], the pIC50 is 8.96 in assay [5], 9.19 in assay [6] and 8.84 in assay [4].

`CO[C@@]12Oc3c4c(cc(C)c3[C@H]3O[C@](C5OCCCO5)(O[C@@H]31)[C@]21CO1)C(=O)c1ccc(Cl)c(OC(C)=O)c1C4=O` [Trx33, (1S,2S,3aS,4R,13aR)-10-Chloro-2-(1,3-dioxan-2-yl)-13a-methoxy-5-methyl-7,12-dioxo-3a,7,12,13a-tetrahydro-4H-spiro[2,4-epoxyfuro[3,2-b]naphtho[2,3-h]chromene-1,2′-oxiran]-11-yl acetate]: the pIC50 in assay [5] is 7.27; in assay [6], 7.48; in assay [4] it was 7.41.
